Primed or numbered codes have the meaning given here. Where no end group is shown, it is not given here. FITC′ = not defined here
Columns and labels:
[1] = test system: SEG1 (adenocarcinoma) cells; experiment: Target peptide binding to cell surface targets; format: cell-based; details: 100 μM
Method: Identification of plasma membrane targets on adenocarcinoma cells that affinity bind to “ASYNYDA” (SEQ ID NO: 5). The carboxyl end of the target peptide was linked to affinity column beads using EDC chemistry. Seg-1 cells were grown to confluency, lysed by sonification, and fractionated by centrifugation. The resulting membrane fractions were applied to the target peptide labeled column and specific binding proteins were eluted. These proteins were separated and collected in fractions by a reverse phase column using a Beckman PF 2D liquid chromatography apparatus. The protein fractions were spotted on a nitrocellulose coated micro array printer slide and probed with the FITC-labeled target peptide. The fluorescence intensities at each spot were quantified with an Axon Imager. Protein fractions with the highest intensity were trypsinized, and proteomic analysis was performed using a Finnigan LTQ linear ion trap mass spectrometer. The protein identities were confirmed using an International Protein Index (IPI) database search, utilizing the SEQUEST program and with open source Xtandem and peptide and protein prophet software. […] See Table 1 below for list of targets identified. All identified proteins were either an exact match or >0.99.

0E-21 (squamous) cells = experiment: Target peptide binding to cell surface targets; format: cell-based; details: 100 μM
[2] = test system: Q-hTERT (intestinal metaplasia) cells; experiment: Target peptide binding to cell surface targets; format: cell-based; details: 100 μM
[3] = test system: OE33 (esophageal adenocarcinoma) cells; experiment: Fluorescence images for peptide binding on culture cells; format: cell-based, human; details: for intensity associated with binding to the cell surface: OE33
Method: (§1) Fluoresence images for peptide binding on culture cells. The OE33 and QhTERT cells were grown in chamber slides to 80% confluence. Blocking of non-specific binding to these cells was performed by adding 200 μl of 1% BSA diluted in PBS for 30 min. The cells were then incubated with […] of the candidate FITC-labeled peptide in serum free media for 10 minutes at room temperature. The cells were washed 3 times using 200 μL PBS/0.5% TWEEN 20 in room temperature. The cells were fixed in ice cold 4% praformaldehyde for 5 minutes. The cells were then stained with Vectashield mounting medium containing DAPI. Fluorescence images were collected with a confocal microscope (Nikon 1000) at 200×. The fluorescence intensity from the cells in 3 images was averaged to assess for peptide binding using NIH Image J software.

[4] = test system: Q-hTERT (intestinal metaplasia) cells; experiment: as above; format: cell-based
Method: as §1

[5] = test system: Human endoscopic mucosal resection (EMR) specimens of esophageal mucosa; experiment: Fluorescence-labeled polypeptide binding to endoscopic mucosal resection (EMR) specimens; details: for mean fluorescence intensity value: 100 μm, 5 minutes
Method: Human endoscopic mucosal resection (EMR) specimens were freshly taken from regions of suspected dysplastic mucosa. Each specimen was incubated with the FITC-labeled polypeptide of SEQ ID NO: 1 at a concentration of 100 μm for 5 minutes. Ink was used to mark the 12 o'clock position for orientation. White light stereo microscope (Olympus SZX16) images were obtained with an overlying 20×20 mm grid to register the histology. Fluorescence images were obtained at an exposure of 12 ms. The tissue was then fixed in formalin. An expert GI pathologist sectioned the specimens along cross-sections at ˜2 mm intervals longitudinally and interpreted the histopathology while blinded to the fluorescence images. The mean intensity of the fluorescence images in each 1 mm interval was measured using the NIH Image J processing software and compared with histology.

[6] = test system: OE33 esophageal adenocarcinoma cells; experiment: Competitive inhibition assay (peptide vs SNFYMPL-phage); format: cell-based, human; details: peptide at 100, 200, and 400 μM
Method: Competitive inhibition assay. The OE33 and Q-hTERT cells were detached and blocked. […] pfu of SNFYMPL-phage was incubated with OE33 cells (1×10^7) or Q-hTERT cells (1×10^7), ‘SNFYMPL-GGGSK’ peptide or scrambled peptide ‘NLMPYFS-GGGSK’ were added into cell-phage mixture at the concentration of 100, 200, and 400 μm for competition with the phage. After washing three times with PBS/0.1% (v/v) Tween-20 and one time with 0.2 M glycine, pH 2.2/0.1% BSA for two minutes, the bound phage were recovered and titered. Every sample was carried out in triplicate. The amount of bound phage in every sample was […].

With ASYNYDA as the substance, how does the “binding to cell surface targets” value [1] read?
Its value is “preferential binding”.

And the “binding to cell surface targets” value (0E-21 (squamous) cells)?
Its value is “lack of binding”.

What about the “binding to cell surface targets” value [2] of the same substance?
Its value is “lack of binding”.

Which results are given for “SNFYMPL-GGGSK-FITC (SNFYMPLGGGSK-{FITC′}) [FITC conjugated at the C-terminus of SNFYMPL via the GGGSK linker]”?
intensity associated with binding to the cell surface ([3]; FIG. 3 legend): 69±18; intensity associated with binding to the cell surface ([3]; NIH Image J): 69 mean grey value; cells with peptide bound to the plasma membrane ([3]; OE33 cells, FITC-labeled peptide, 10 minutes): > 90%; intensity associated with binding to the cell surface ([4]; FIG. 3 legend): 25.7±2.5; intensity associated with binding to the cell surface ([4]; NIH Image J): 25.7 mean grey value; mean fluorescence intensity value ([5]; dysplasia (n=69 sites)): 56.5 gray levels; mean fluorescence intensity value ([5]; gastric mucosa (n=35 sites)): 24.1 gray levels; mean fluorescence intensity value ([5]; intestinal metaplasia (n=66 sites)): 42.1 gray levels; binding to Barrett's dysplasia ([5]; mucosal surface areas on the centimeter scale): Selective binding; mean fluorescence intensity value ([5]; squamous (n=107 sites)): 27.1 gray levels

Which results are given for SNFYMPL-GGGSK?
inhibition of SNFYMPL-phage binding to OE33 cells [6]: could obviously inhibit; inhibition of SNFYMPL-phage binding to OE33 cells ([6]; listed as ‘SNFYMPL’ peptide): significantly inhibited the SNFYMPL-phage binding to the OE33 cells in a concentration dependent manner

With “NLMPYFS-GGGSK (NLMPYFSGGGSK) [scrambled control peptide, reference compound]” as the substance, how does the “inhibition of SNFYMPL-phage binding to OE33 cells” value [6] read?
Its value is “no inhibition ability”.

And the “inhibition of SNFYMPL-phage binding to OE33 cells” value ([6]; listed as scrambled peptide ‘NLMPYFS’)?
The value was “did not inhibit”.

— patent US20100310459A1, “Targeted Detection of Dysplasia In Barrett's Esophagus With A Novel Fluorescence-Labeled Polypeptide” (THE REGENTS OF THE UNIVERSITY OF MICHIGAN, priority 2009, published 2010)
